Where “and” joins values, the source holds several entries; their conditions need not be identical. Equal values may be shown once.

This is an account of results in the Deep4Chem optical property database.

A short description of this data set: solvent given as SMILES.

As for `CC(C)c1cc(C(C)C)c(B2c3ccccc3Oc3cc(N4c5ccccc5C5(c6ccccc6Oc6ccccc65)c5ccccc54)ccc32)c(C(C)C)c1`, the absorption maximum (in Cc1ccccc1) worked out at 429 nm.
Consider `CCN(CC)c1ccc([N+]2=Cc3ccc4c5c(ccc4c3O[B-]2(c2c(F)c(F)c(F)c(F)c2F)c2c(F)c(F)c(F)c(F)c2F)C=[N+](c2ccc(N(CC)CC)cc2)[B-](c2c(F)c(F)c(F)c(F)c2F)(c2c(F)c(F)c(F)c(F)c2F)O5)cc1`, for which the absorption maximum was found to be 559 nm (in C1CCOC1); 555 nm (in CC#N); 555 nm (in CC(C)=O); 584 nm (in Cc1ccccc1); 589 nm (in ClCCl).
Compound `COc1ccc2cc(-c3ccccc3CC#N)c(=O)oc2c1` came in with an absorption maximum (in ClC(Cl)Cl) of 336 nm.
Regarding `Cc1ccc(N(c2ccc(C)cc2)c2ccc3c4cccc5c(N(c6ccc(C)cc6)c6ccc(C)cc6)ccc(c6cccc2c63)c54)cc1`, the absorption maximum is 506 nm (in C1CCCCC1); 502 nm (in C1CCOC1); 496 nm (in CC#N); 507 nm (in Cc1ccccc1); 473 nm (in ClCCl).
For the compound `O=C1c2ccccc2-c2cnccc21`, the absorption maximum runs as follows: (in CC#N) 397.05 nm; (in CCCCCC) 394.16 nm.
On to `O=C(O)CC[N+]1=c2cc3c(cc2CCC1)=Cc1c(c2cc4c5c(c2oc1=O)CCCN5CCC4)O3`, for which the absorption maximum came to 619 nm (in CC#N), 617 nm (in CO), 637 nm (in ClCCl) and 608 nm (in O).
In turn, `Fc1nc(F)c(F)c(C#Cc2cc3c(cc2C#Cc2c(F)c(F)nc(F)c2F)OC2(CCCCC2)O3)c1F` had an absorption maximum (in CC#N) of 360 nm.
Regarding `Cc1cccc2ccccc12`, the absorption maximum (in C1CCCCC1) was 293.94 nm.
Take `COC(=O)C(NC(=O)CCNc1cccc2ccccc12)C(C)C` (centres undefined): the absorption maximum (in CCO) worked out at 330 nm.
Take `COc1ccc(C2=C(c3ccc(OC)cc3)C(C)(C)c3cc(OC)ccc32)cc1`: the absorption maximum (in C1CCCCC1) stood at 296 nm.
The compound `c1ccc(C2=C(c3ccccc3)c3cccc4c5c(cc(c34)O2)=NC2CCCCC2N=5)cc1` (centres undefined) returned an absorption maximum (in ClCCl) of 431 nm.
On to `CCN1CCN(c2ccc(/N=N/c3ccc(C(=O)OC)cc3)cc2)CC1`, for which, under “in CCOC(C)=O”, the absorption maximum was determined as 419 nm.
`Cc1cc(C)c2nc3c(=O)[nH]c(=O)[nH]c3nc2c1` showed an absorption maximum (in CC#N) of 350 nm.
As for `CCN(CC)c1ccc2cc(-c3ccc(-c4ccc5ccc6c(-c7ccc(-c8cc9ccc(N(CC)CC)cc9oc8=O)cc7)ccc7ccc4c5c76)cc3)c(=O)oc2c1`, where the note is “in ClC(Cl)Cl”, the absorption maximum was 412 nm.
Compound `NC1=N/C(=N\c2ccccn2)c2cccc3cccc1c23` had an absorption maximum (in ClCCl) of 365 nm.
With `COc1ccc(/C=C/c2cc(/C=C/c3ccc(OC)cc3)nc(/C=C/c3ccc(N(C)C)cc3)n2)cc1`, the absorption maximum (in ClCCl) came to 370 nm.
For the compound `c1ccc2c3c(ccc2c1)-c1cccc2c1c-3cc1ccccc12`, the absorption maximum (in CCCCCCC) was 383 nm.
`CCOC(=O)c1cc(C(=O)OCC)c2cc(N(C)C)ccc2n1`: the absorption maximum (in CCO) is on record as 443 nm.
Compound `N#CC(C#N)=Cc1ccc2c(c1)c1ccccc1n2-c1cccc2ccccc12` registered an absorption maximum (in ClCCl) of 404 nm.
As to `C(=C\c1nc2ccccc2s1)/c1ccc(-c2nc3c4cccnc4c4ncccc4c3[nH]2)cc1`, the absorption maximum is, setting by setting: (in C1CCOC1) 386 nm; (in CC#N) 380 nm; (in CO) 375 nm; (in ClCCl) 384 nm.
Where the note is “in ClCCl”, `Cc1cccc2[n+]1[B-](c1ccccc1)(c1ccccc1)c1cccc3c4c5c(cccc5c-2c13)[B-](c1ccccc1)(c1ccccc1)[n+]1c(C)cccc1-4` had an absorption maximum of 542 nm.
Consider `CN(C)c1ccc(C2=Cc3c4ccccc4c4ccccc4[n+]3[B-](F)(F)O2)cc1`, for which the absorption maximum by setting is: (in C1CCOC1) 478 nm; (in C1COCCO1) 477 nm; (in CC1CCCCC1) 474 nm; (in CC#N) 476 nm; (in CCOC(C)=O) 475 nm; (in CCOCC) 472 nm. Besides, the absorption maximum (in CN(C)C=O) is on record as 484 nm, the absorption maximum (in CO) was 475 nm, the absorption maximum (in COC(C)=O) was 477 nm and the absorption maximum (in ClC(Cl)Cl) was 483 nm.
Where the note is “in CC#N”, `N#C/C(=C\c1ccc(Cl)cc1)c1nc(-c2ccccc2)cs1` registered an absorption maximum of 364 nm.
The same measure, in the same setting: as for `CCN(CC)c1ccc(/C=N/C(C#N)=C(C#N)\N=C\c2ccc(N(CC)CC)cc2O)c(O)c1`, the figure is 564 nm.
`CCN(CC)c1ccc2c(c1)oc(=O)c1cc3c(C)nn(-c4ccccc4)c3nc12` came in with an absorption maximum (in ClCCl) of 377 nm.
As to `COc1cccc2cc(C)c3c4ccccc4n(C)c3c12`, the absorption maximum (in ClCCl) is reported as 370 nm.
With `CCCCNc1nn(-c2ccc(OC)cc2)nc1C#N`, the absorption maximum (in CC#N) is 328 nm.
With `CN(C)CCNCc1c2ccccc2cc2ccccc12`, the absorption maximum came out at 368 nm (in C1CCCCC1); 366 nm (in C1CCOC1); 365 nm (in CC#N); 365 nm (in CC(C)=O); 366 nm (in CCO); 363 nm (in CN(C)C=O). The absorption maximum was 364 nm (in CO) and 367 nm (in ClC(Cl)Cl).
For the compound `c1ccc(-n2c(-c3ccc(-c4ccc(-c5ccc(-c6nc7c8ccccc8c8ccccc8c7n6-c6ccccc6)cc5)cc4)cc3)nc3ccccc32)cc1`, the absorption maximum turned out to be 341 nm (in C1CCOC1); 344 nm (in C1COCCO1); 337 nm (in CC#N); 341 nm (in CCCCCC); 340 nm (in CCCCOCCCC); 341 nm (in CCN(CC)CC). Further, the absorption maximum runs as follows: (in CCOC(C)=O) 339 nm; (in CCOCC) 340 nm; (in CN(C)C=O) 342 nm; (in Cc1ccccc1) 345 nm; (in ClC(Cl)Cl) 340 nm; (in ClC=C(Cl)Cl) 343 nm. Moreover, the absorption maximum (in ClCCl) came to 340 nm.
In the case of `N#Cc1c(N2CCCCC2)cc(-c2cccs2)c2c1-c1cccc3cccc-2c13`, the absorption maximum (in O) was determined as 458 nm.
In the case of `c1ccc(-c2nc(-c3ccccc3)c(-c3ccccc3)[nH]2)cc1`, the absorption maximum is 311.5 nm and 312 nm (in CC#N); 311.5 nm (in CO).
For the compound `c1ccc(-c2nc(-c3ccc(-c4ccc(-n5c6ccccc6c6ccccc65)cc4)cn3)oc2-c2ccccc2)cc1`, the absorption maximum is 333 nm (in C1CCOC1); 326 nm (in C1COCCO1); 330 nm (in CC#N); 333 nm (in CC(C)=O); 334 nm (in CC(C)OC(C)C); 336 nm (in CCCCCC). The absorption maximum is, setting by setting: (in CCCCOCCCC) 336 nm; (in CCN(CC)CC) 333 nm; (in CCOC(C)=O) 332 nm; (in CCOCC) 333 nm; (in Cc1ccccc1) 338 nm; (in c1ccccc1) 338 nm.
With `Cc1ccc(C(=O)NN2C3=C(CC4=C2CCCC4=O)C(=O)CCC3)cc1`, the absorption maximum by setting is: (in C1CCOC1) 366 nm; (in CC#N) 368 nm; (in CC(C)=O) 366 nm; (in CCCCCO) 376 nm; (in CO) 374 nm; (in ClC(Cl)Cl) 370 nm. This compound also showed an absorption maximum (in ClCCl) of 366 nm.
Consider `Cc1ccc2nc3[nH]c(=O)[nH]c(=O)c3nc2c1C`, for which the absorption maximum (in CC#N) was determined as 388 nm.
Consider `CCN1C(=CC2=C([O-])C(=CC3=[N+](CC)c4ccccc4C3(C)C)C2=O)C(C)(C)c2ccccc21`, for which the absorption maximum is 628 nm (in CO), 635 nm (in ClC(Cl)Cl) and 637 nm (in ClCCl).
For the compound `CCn1c2ccccc2c2cc(-c3cc(-c4ccc5c(c4)c4ccccc4n5CC)nc(S(C)(=O)=O)n3)ccc21`, the absorption maximum runs as follows: (in C1CCOC1) 381 nm; (in CCOC(C)=O) 378 nm; (in CN(C)C=O) 384 nm; (in Cc1ccccc1) 382 nm; (in ClCCl) 384 nm.
Turning to `COc1cc(N(c2ccccc2)c2ccccc2)ccc1C=C(C#N)C#N`, the absorption maximum is on record as 436 nm (in C1COCCO1); 440 nm (in CC#N); 440 nm (in CC(C)=O); 439 nm (in CCOC(C)=O); 445 nm (in CN(C)C=O); 442 nm (in CO). Moreover, the absorption maximum (in Cc1ccccc1) is given as 443 nm, the absorption maximum (in ClC(Cl)Cl) stood at 449 nm and the absorption maximum (in ClCCl) came to 446 nm.
`CN(CC(O)c1cccc(O)c1)c1ccc([N+](=O)[O-])c(C2CC(c3cccc4ccccc34)=NN2c2ccccc2)c1` (centres undefined): the absorption maximum (in C1CCCCC1) came out at 400 nm; the absorption maximum (in C1CCOC1) came out at 411 nm; the absorption maximum (in C1COCCO1) is 396 nm; the absorption maximum (in CC#N) is on record as 402 nm; the absorption maximum (in CC(C)O) is listed as 412 nm; the absorption maximum (in CCOC(C)=O) is listed as 418 nm. The absorption maximum by setting is: (in CCOCC) 405 nm; (in CO) 409 nm; (in Cc1ccccc1) 414 nm; (in ClC(Cl)Cl) 369 nm; (in O) 406 nm.
Consider `COc1cc(OC)cc(C2=C3C(C)=C(I)C(C)=[N+]3[B-](F)(F)n3c(/C=C/c4c[nH]c5ccc([N+](=O)[O-])cc45)c(I)c(C)c32)c1`, for which the absorption maximum was 612 nm (in C1CCOC1), 622 nm (in CS(C)=O) and 606 nm (in ClCCl).
As for `CC(=O)Nc1ccc(C2=C/C(=C\c3ccc([N+](=O)[O-])cc3)C(=O)O2)cc1`, the absorption maximum (in C1COCCO1) was 438 nm.
As to `COc1ccccc1-c1nc2c([nH]1)C1=CC(=O)S[C@]1(C)[C@@]1(C)SC(=O)C=C21`, where the note is “in CC#N”, the absorption maximum was 390 nm.
Compound `Cc1cc(C2=Cc3cccc[n+]3[B-](F)(F)O2)ccc1N(C)C` had an absorption maximum (in ClC(Cl)Cl) of 400 nm.
